Experimental data reported in US20220000873A1, “S3QELS TO PROTECT AGAINST INTESTINAL PERMEABILITY” (Buck Institute for Research on Aging, priority 2018, published 2022).

How the values were obtained:
[1] = tested on: C57BL/6 mice fed a high-fat diet; experiment: Mouse intestinal permeability (plasma FITC-dextran after gavage and fecal albumin); type: in vivo; details: high-fat diet (60% kcal) with 200 mg/kg S3QEL in diet, 16 weeks; plasma FITC-dextran and fecal albumin (FIG. 5A, B)
Experimental: (§1) Six-week-old C57BL/6 mice were purchased from Jackson Laboratories and acclimated in-house for two weeks before the study. At 8 weeks of age, mice were randomized into groups based on weight and fed either a control semi-purified diet D12450J containing 10% fat kcal, a 60% fat kcal diet D12492, or a custom-mixed 60% fat kcal diet D12492 containing 200 mg/kg of S3QELs. Diets were purchased from Research Diets and were gamma-irradiated. Mice were maintained on the experimental diets for 16 weeks in total. Food consumption was measured daily in a semiquantitative fashion. The food was weighed before placing in the cage, and then weighed again 24 h later. The total food weight difference within 24 h was divided by the number of mice in the cage to determine average food consumption per mouse. All experiments involving the use of mice were reviewed and approved by the Institutional Animal Care and Use Committee (IACUC) of the Buck Institute.
Mice were fasted for 4 h prior to assay. […] Blood plasma samples were diluted appropriately using 1×PBS and FITC-dextran fluorescence was measured at Ex 485 nm/Em 535 nm. FITC-dextran amount was determined using standard curves generated from a known amount of FITC-dextran titrated in plasma from control or high fat-fed mice. […]

[2] = tested on: C57BL/6 mice fed a high-fat diet; experiment: Mouse intestinal gene expression (qPCR, colon and distal small intestine); type: in vivo; details: high-fat diet with 200 mg/kg S3QEL, 16 weeks
Experimental: as §1, with “The total food weight difference within 24 h was divided by the number of mice in the cage to determine average food consumption per mouse. All experiments involving the use of mice were reviewed and approved by the Institutional Animal Care and Use Committee (IACUC) of the Buck Institute.” left out
RNA from the fly intestine lysates, and the aqueous phase from the mouse intestinal Trizol lysates, were further processed to isolate RNA using a Quick-RNA™ MiniPrep Kit (Zymo Research) according to the manufacturer's guidelines. […] The quantity and quality of fly and mouse RNA samples were determined using a NanoDrop 1000 spectrophotometer (Thermo Scientific). 1 μg of total RNA from either fly or mouse intestine was used in a total reaction volume of […] containing 4 μL of iScript Reverse Transcription Supermix (Bio-Rad) to synthesize cDNA according to the manufacturer's guidelines. cDNA was stored at −20° C. before carrying out quantitative RTPCR. […]

Question: With `Cc1ccc(-n2ncc3c(N(Cc4ccccc4)C(C)C)ncnc32)cc1Cl` [S3QEL2.2] as the compound, how does the “increases in intestinal permeability in mice” value [1] read?
Answer: The value was “strongly protected”.

Question: And the “decrease in tight-junction gene expression” value ([2]; both colon and distal small intestine (FIG. 5C, FIG. 11))?
Answer: The value was “protected against the decrease”.

Question: And the “decrease in mucin gene expression” value ([2]; both colon and distal small intestine (FIG. 5D, FIG. 11))?
Answer: Its value is “protected against the decrease”.
